# Tested on: cytoplasmic mutant R636S RBM20 condensates in H9C2 cells
# Test: Screening assay for compounds that modulate cytoplasmic mutant R636S RBM20 condensates (fluorescence imaging)
# Type: cell-based, rat
# Details: H9C2 cells transiently transfected with R636S RBM20-Dendra2; 20 μM test compound; incubated 24 hours; versus DMSO
# Method: H9C2 cells were engineered using transient transfection to express a mutant R636S RBM20 polypeptide linked to a Dendra2 label. Following transfection, cells were incubated to allow for RBM20 polypeptide expression for about 16 hours. H9C2 cells were seeded into 384-well plates, and admixed with a control (DMSO) or 20 μM test compound, and then incubated for 24 hours prior to fixation, staining (e.g., with DAPI), and capturing of fluorescent images. H9C2 cells not transfected with mutant R636S RBM20 polypeptide served as controls. Three replicates were run for each compound. Fluorescent images of cells, and/or portions of cells, were captured using a DeltaVision wide-field deconvoluted system.
# Non-transfected H9C2 cells served as control. […] Their down-regulation levels are indicated as Z score under each panel.
row,Structure (SMILES),effect on cytoplasmic mutant R636S RBM20 condensates
1,CCN(CC)CCCC(C)Nc1c2ccc(Cl)cc2nc2ccc(OC)cc12.Cl.Cl (stereo not drawn) [Quinacrine 2HCl],increased cytoplasmic mutant R636S RBM20 condensates
2,COc1ccc(C[C@H]2NC[C@H](O)[C@H]2OC(C)=O)cc1 [anisomycin],able to reduce cytoplasmic mutant R636S RBM20 condensates
3,Cn1ncc(Cl)c1-c1cc(C(=O)N[C@H](CN)Cc2ccc(F)c(F)c2)oc1Cl [Uprosertib],able to reduce cytoplasmic mutant R636S RBM20 condensates
4,CN1CCN(Cc2ccc(NC(=O)Cc3ccc(Oc4cc(NC(=O)C5CC5)ncn4)cc3)cc2C(F)(F)F)CC1 [WS6],able to reduce cytoplasmic mutant R636S RBM20 condensates
5,CC(C)[C@]12O[C@H]1[C@@H]1O[C@]13[C@]1(O[C@H]1C[C@H]1C4=C(CC[C@@]13C)C(=O)OC4)[C@@H]2O [Triptolide],able to reduce cytoplasmic mutant R636S RBM20 condensates
6,O=C1Nc2cc(Br)ccc2/C1=C1/Nc2ccccc2/C1=N\O [BIO],able to reduce cytoplasmic mutant R636S RBM20 condensates

# Reference: patent US20220365070A1, “COMPOSITIONS, SYSTEMS, AND METHODS FOR IDENTIFYING A COMPOUND THAT MODULATES ONE OR MORE CHARACTERISTICS ASSOCIATED WITH A RBM20 CONDENSATE AND/OR A RBM20 POLYPEPTIDE” (Dewpoint Therapeutics, Inc., priority 2019, published 2022)
